# Experimental data published in patent US5506213A, “Adminstration of 2'-halo-2'-deoxy adenosine to treat inflammatory bowel disease” (priority 1994, dated 1996).
# What was measured:
# [1] = system: interleukin-1β (IL-1β); assay: Plasma IL-1beta in a rheumatoid arthritis patient, ELISA; format: in vivo, human; details: each last infusion day compared to pretreatment values; one patient; preliminary
# Source text: Preliminary studies have also measured the concentration of interleukin-1β (IL-1β) in cryopreserved plasma samples from one of the rheumatoid arthritis patients. IL-1β is a lymphokine released by antigen-stimulated macrophages that promotes the formation of interleukin-2 in antigen-activated cytotoxic T cells. IL-2 promotes mitosis in activated cytotoxic T cells.
# This patient received CdA, as before, in four treatments over a time period of almost 100 days. Each treatment was by 5-day continuous infusion.
# IL-1β concentrations were measured using a commercially available ELISA kit (Cistron).
# [2] = system: intact human cells or cell extracts; details: cited from earlier work
# [3] = system: delayed-type hypersensitivity (DTH) response; assay: Delayed-type hypersensitivity to ovalbumin in guinea pigs, oral and intraperitoneal treatment; format: in vivo, guinea pig; details: dexamethasone 5 mg/kg, CdA or CAFdA 1 mg/kg, 24 and 48 hours, p<0.01
# Protocol: Delayed-type hypersensitivity (DTH) is a cell-mediated immune response that typically takes longer than 12 hours to develop. In the guinea pig, a DTH reaction to an antigen can be established by first immunizing the animal with the antigen in an adjuvant such as Freund's complete adjuvant. Subsequent intradermal injection of the antigen causes no change for at least 10 hours, after which there is a gradual increase in erythema and swelling in response to antigen injection. This response peaks about at about 24 hours after challenge, then gradually subsides.
# Histologically, the inflammatory response is characterized by intense inundation of the site with mononuclear cells, of which about half are lymphocytes and the other half monocytes. DTH is therefore an indicator of a monocyte-mediated immune reaction.
# In one study, guinea pigs were sensitized to ovalbumin in adjuvant. The animals were then treated either orally or intraperitoneally with saline (control), dexamethasone (5 mg/kg), CdA (1 mg/kg) or CAFdA (1 mg/kg). The animals were then injected with ovalbumin intradermally to elicit the DTH response. The mean area of the swelling size was measured for each animal (nine or ten animals were treated for each protocol).
# [4] = system: 2 week old cultured monocytes (differentiated macrophages); assay: In vitro cytotoxicity toward 2 week old cultured monocytes; format: cell-based, human
# [5] = system: autoantibody production; assay: 2-Chlorodeoxyadenosine in autohemolytic anemia patients; format: in vivo, human
# Source text: Thus, the present invention provides a method for decreasing the number of circulating blood monocytes.
# [6] = system: monocytes; assay: Direct comparative cytotoxicity assay (Table II), monocytes; format: cell-based, human; details: Homo sapiens, Monocyte, 120 h, read-out: ID50: concentration that produced 50 percent reduction in all numbers after five days
# Source text: The two compounds, CdA and CAFdA, were also compared for in vitro activity against another group of human cell lines in a direct comparative assay.
# ^1 Concentration that produced 50 percent reduction in all numbers
# [7] = system: RNA synthesis in monocytes; assay: Monocyte RNA synthesis, 3H-uridine incorporation; format: cell-based, human; details: 1 nM CdA; detectable after the first hour of culture
# Protocol: (§1) FIG. 5 is a graph showing the biochemical effects induced in human monocytes in vitro by exposure to […] CdA over a period of 16 hours. The effects of CdA exposure upon monocyte viability (open squares), NAD content (closed squares), RNA synthesis (open circles) and DNA strand breaks (ds-DNA; closed circles) are illustrated.
# Monocyte RNA synthesis following CdA exposure was studied by measuring the incorporation of ^3 H-uridine. Monocytes were exposed to ^3 H-uridine (20 μCi/10^6 cells) during the final 1 hour of CdA (1 nM) exposure. Radioactivity measured was contained in trichloroacetic acid precipitates collected onto cellulose acetate filters and measured by liquid scintillation counting.
# [8] = system: human monocytes; assay: Cellular NAD, ATP and viability in human monocytes exposed to CdA; format: cell-based; details: CdA at 1 nM
# Protocol: as §1
# Cellular NAD content was measured in human monocytes following incubation in culture with CdA (1 nM). An alcohol dehydrogenase cycling assay as described in Jacobson and Jacobson (1976) Arch. Biochem. Biophys. 175:627-634 was used to measure NAD.
# Monocytes, cultured and contacted as before described, were detached from the culture wells and were treated with perchloric acid (0.5M) for 10 minutes at 4 degrees C. The mixture was clarified and neutralized with KOH containing potassium phosphate buffer (0.33M) at pH 7.5.Monocyte ATP was quantitated in perchloric acid extracts by anion exchange HPLC, using a Whatman SAX column with an isocratic mobile phase consisting of KH2 PO4 (0.25M), KCl (0.5M) and acetonitrile (2 percent) at pH 3.6 following the procedures of Carson et al. (1980) Proc. Nat'l. Acad, Sci. USA, 77:6865-6869.
# NAD^+ consumption for poly(ADP-ribose) synthesis is a known consequence of severe DNA damage in eukaryotic cells. […]
# [9] = system: antigen-induced arthritis; assay: Antigen-induced arthritis in rabbits; format: in vivo; details: CdA 1 mg/kg, tepoxalin 25 mg/kg, naproxen 5 mg/kg
# Protocol: Antigen-induced arthritis in rabbits is an animal model of rheumatoid arthritis. In this model, the rabbits are sensitized to an antigen such as ovalbumin or methylated bovine serum albumin in an adjuvant. Several weeks later, the same antigen is injected directly into the joints of the animal. […] Pettipher et al., Br. J. Exp. Path., 69:113-122 (1988).
# Rabbits with antigen-induced arthritis were treated with CdA (1 mg/kg), tepoxalin (25 mg/kg) or naproxen (5 mg/kg).
structure (smiles),measurement,setting,value
"Nc1nc(Cl)nc2c1ncn2[C@H]1C[C@H](O)[C@@H](CO)O1 [CdA, 2-chloro-9,1'-beta-D-2'-deoxyribosyladenine]",plasma IL-1β level,[1],significantly lower
same,phosphorylation,[2]; T lymphocytes,phosphorylated efficiently
same,catabolism,[2]; intact human cells or cell extracts,not catabolized significantly
same,swelling after ovalbumin challenge compared to saline control,[3]; intraperitoneal,significant inhibition of swelling
same,swelling after ovalbumin challenge compared to saline control,[3]; oral,ineffective
same,IC50,"[4]; Homo sapiens, Monocyte, 336 h, read-out: CdA concentration at which 50 percent of 2 week old cultured monocytes were killed",> 250 nM
same,increase in resistance of 2 week old cultured versus freshly isolated monocytes,"[4]; human, monocytes",over 12.5 times
same,autoantibody production,[5],significant decrease in autoantibody production
same,hemolysis,[5],reduction in hemolysis
same,IC50,[6],22 nM
same,RNA synthesis,[7],progressive reduction in RNA synthesis
same,exposure time at which decreases in ATP and cell viability were first evident,[8],16 h
same,monocyte NAD content,[8]; first four hours of exposure,> 95% of control NAD
same,pathological examination of joints compared to untreated controls,[9],milder inflammatory response coupled with much less tissue damage
